Data from ChEMBL document CHEMBL6092192 (J Med Chem, 2024).
Active and inactive are the calls of the source. The calls are words filed in the database; no cut-off is given here.

Experiments:
[1] = Toxicity in BALB/c nude mouse xenografted with […] CT26/TAXOL cells assessed as effect on kidney at 100 mg/kg/day, IG in presence of paclitaxel/anti-PD-1 measured after 14 days by H and E staining based analysis; format: organism-based; details: in vivo, po, 336 h, time 14 day
[2] = Reversal of paclitaxel resistance in HEK293 cells transfected with pcDNA3.1 assessed as reversal fold by measuring ratio of paclitaxel IC50 to paclitaxel IC50 in presence of test compound at 4 uM incubated for 72 hrs by MTT assay; format: functional, Homo sapiens
SW-620 [3] = experiment: Cytotoxicity against human SW620 cells assessed as survival rate at 4 uM measured after 72 hrs by MTT assay relative to control; format: functional; details: read-out: Survival
[4] = Toxicity in BALB/c nude mouse xenografted with […] CT26/TAXOL cells assessed as change in body weight at 100 mg/kg/day, IG measured upto 14 days in presence of paclitaxel; format: organism-based; details: in vivo, po, 336 h, time < 14 day
[5] = Toxicity in BALB/c nude mouse xenografted with […] CT26/TAXOL cells assessed as mortality at 100 mg/kg/day, IG measured upto 14 days in presence of paclitaxel/anti-PD-1; format: organism-based; details: in vivo, po, 336 h, time < 14 day
[6] = Tmax in 12 hrs fasted Sprague-Dawley rat at 1 mg/kg, iv measured upto 720 mins by HPLC-MS/MS analysis; format: ADME, organism-based; details: in vivo
[7] = Toxicity in BALB/c nude mouse xenografted with […] CT26/TAXOL cells assessed as effect on brain at 100 mg/kg/day, IG in presence of paclitaxel/anti-PD-1 measured after 14 days by H and E staining based analysis; format: organism-based; details: in vivo, po, 336 h, time 14 day
SW620/AD300 [8] = experiment: Cytotoxicity against multidrug resistant human SW620/AD300 cells assessed as survival rate at 2 uM measured after 72 hrs by MTT assay relative to control; format: functional; details: read-out: Survival
CD8-positive T cell [9] = experiment: Activation of immune response in human CD8-positive T cell assessed as increase in granzyme level at 4 uM by ELISA method; format: functional, cell-based
CT26/TAXOL [10] = experiment: Antitumor T-cell immune response in […] cells xenografted in BALB/c nude mouse model assessed as reduction in tumor weight at 100 mg/kg/day, IG in presence of anti-PD-1/paclitaxel measured after 14 days; format: functional, organism-based; details: time 14.0 day
[11] = Toxicity in BALB/c nude mouse xenografted with […] CT26/TAXOL cells assessed as mortality at 100 mg/kg/day, IG measured upto 14 days; format: organism-based; details: in vivo, po, 336 h, time < 14 day
HEK293 [12] = experiment: Cytotoxicity against HEK293 cells harbouring ABCB1 assessed as survival rate at 5 uM measured after 72 hrs by MTT assay relative to control; format: functional; details: Homo sapiens, read-out: Survival
[13] = molecular target: Voltage-gated inwardly rectifying potassium channel KCNH2 (Homo sapiens, UniProt Q12809); experiment: Inhibition of human ERG expressed in CHO cells by QPatch assay; format: toxicity, cell-based
Sequence of Voltage-gated inwardly rectifying potassium channel KCNH2 (Q12809 whole entry): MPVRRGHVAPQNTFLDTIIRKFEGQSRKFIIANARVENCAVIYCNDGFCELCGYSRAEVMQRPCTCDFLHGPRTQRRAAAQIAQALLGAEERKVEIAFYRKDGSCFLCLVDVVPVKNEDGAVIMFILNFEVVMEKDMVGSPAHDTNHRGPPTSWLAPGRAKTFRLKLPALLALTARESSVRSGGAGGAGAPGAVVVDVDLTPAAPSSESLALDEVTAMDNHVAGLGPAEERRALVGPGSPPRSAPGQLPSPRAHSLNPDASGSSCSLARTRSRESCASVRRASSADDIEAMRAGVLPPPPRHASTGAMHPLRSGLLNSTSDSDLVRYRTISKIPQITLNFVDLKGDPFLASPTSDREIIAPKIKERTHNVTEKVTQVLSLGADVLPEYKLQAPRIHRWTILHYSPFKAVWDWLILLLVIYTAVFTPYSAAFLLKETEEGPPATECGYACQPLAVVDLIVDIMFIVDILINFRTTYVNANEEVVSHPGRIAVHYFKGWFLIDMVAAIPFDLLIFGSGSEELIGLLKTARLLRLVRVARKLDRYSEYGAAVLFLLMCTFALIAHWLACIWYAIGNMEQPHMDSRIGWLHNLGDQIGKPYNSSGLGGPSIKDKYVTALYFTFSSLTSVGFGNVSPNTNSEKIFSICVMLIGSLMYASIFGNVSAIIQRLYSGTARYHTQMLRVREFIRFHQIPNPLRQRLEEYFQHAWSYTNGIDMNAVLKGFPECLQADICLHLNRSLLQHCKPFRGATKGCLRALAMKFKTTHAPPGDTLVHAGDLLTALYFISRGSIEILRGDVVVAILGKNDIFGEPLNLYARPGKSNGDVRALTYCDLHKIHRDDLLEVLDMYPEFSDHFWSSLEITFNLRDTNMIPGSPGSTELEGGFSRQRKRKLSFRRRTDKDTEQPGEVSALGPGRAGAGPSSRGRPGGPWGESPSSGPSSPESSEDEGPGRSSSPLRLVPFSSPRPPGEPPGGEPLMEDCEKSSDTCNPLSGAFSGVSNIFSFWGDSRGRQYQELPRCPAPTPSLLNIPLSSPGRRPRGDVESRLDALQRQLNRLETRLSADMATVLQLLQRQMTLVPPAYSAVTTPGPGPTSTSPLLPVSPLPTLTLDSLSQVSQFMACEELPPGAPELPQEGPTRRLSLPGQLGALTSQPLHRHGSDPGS

SW620/AD300 [14] = experiment: Antitumor activity against human SW620/AD300 cells xenografted in male BALB/c nude mouse model assessed as reduction in tumor volume at 100 mg/kg/day, IG measured after 21 days; format: functional, organism-based; details: time 21.0 day
[15] = Toxicity in BALB/c nude mouse xenografted with […] CT26/TAXOL cells assessed as effect on lung at 100 mg/kg/day, IG in presence of paclitaxel measured after 14 days by H and E staining based analysis; format: organism-based; details: in vivo, po, 336 h, time 14 day
HEK293 [16] = experiment: Cytotoxicity against HEK293 cells transfected with pcDNA3.1 assessed as survival rate at 5 uM measured after 72 hrs by MTT assay relative to control; format: functional; details: Homo sapiens, read-out: Survival
SW-620 [17] = experiment: Reversal of paclitaxel resistance in human SW620 cells assessed as reversal fold by measuring ratio of paclitaxel IC50 to paclitaxel IC50 in presence of test compound at 2 uM incubated for 72 hrs by MTT assay; format: functional
SW620/AD300 [18] = experiment: Cytotoxicity against multidrug resistant human SW620/AD300 cells assessed as survival rate at 4 uM measured after 72 hrs by MTT assay relative to control; format: functional; details: read-out: Survival
[19] = molecular target: T1, ATP-dependent translocase ABCB1 (Homo sapiens, UniProt P08183); experiment: Inhibition of ABCB1 in human SW620/AD300 cells assessed as increase in intracellular paclitaxel incubated for 4 hrs by liquid scintillation analysis; format: cell-based; details: sw620/ad300, 4 h, at 2 to 4 µM, dose 2-4 µM
T1 sequence (P08183 whole entry): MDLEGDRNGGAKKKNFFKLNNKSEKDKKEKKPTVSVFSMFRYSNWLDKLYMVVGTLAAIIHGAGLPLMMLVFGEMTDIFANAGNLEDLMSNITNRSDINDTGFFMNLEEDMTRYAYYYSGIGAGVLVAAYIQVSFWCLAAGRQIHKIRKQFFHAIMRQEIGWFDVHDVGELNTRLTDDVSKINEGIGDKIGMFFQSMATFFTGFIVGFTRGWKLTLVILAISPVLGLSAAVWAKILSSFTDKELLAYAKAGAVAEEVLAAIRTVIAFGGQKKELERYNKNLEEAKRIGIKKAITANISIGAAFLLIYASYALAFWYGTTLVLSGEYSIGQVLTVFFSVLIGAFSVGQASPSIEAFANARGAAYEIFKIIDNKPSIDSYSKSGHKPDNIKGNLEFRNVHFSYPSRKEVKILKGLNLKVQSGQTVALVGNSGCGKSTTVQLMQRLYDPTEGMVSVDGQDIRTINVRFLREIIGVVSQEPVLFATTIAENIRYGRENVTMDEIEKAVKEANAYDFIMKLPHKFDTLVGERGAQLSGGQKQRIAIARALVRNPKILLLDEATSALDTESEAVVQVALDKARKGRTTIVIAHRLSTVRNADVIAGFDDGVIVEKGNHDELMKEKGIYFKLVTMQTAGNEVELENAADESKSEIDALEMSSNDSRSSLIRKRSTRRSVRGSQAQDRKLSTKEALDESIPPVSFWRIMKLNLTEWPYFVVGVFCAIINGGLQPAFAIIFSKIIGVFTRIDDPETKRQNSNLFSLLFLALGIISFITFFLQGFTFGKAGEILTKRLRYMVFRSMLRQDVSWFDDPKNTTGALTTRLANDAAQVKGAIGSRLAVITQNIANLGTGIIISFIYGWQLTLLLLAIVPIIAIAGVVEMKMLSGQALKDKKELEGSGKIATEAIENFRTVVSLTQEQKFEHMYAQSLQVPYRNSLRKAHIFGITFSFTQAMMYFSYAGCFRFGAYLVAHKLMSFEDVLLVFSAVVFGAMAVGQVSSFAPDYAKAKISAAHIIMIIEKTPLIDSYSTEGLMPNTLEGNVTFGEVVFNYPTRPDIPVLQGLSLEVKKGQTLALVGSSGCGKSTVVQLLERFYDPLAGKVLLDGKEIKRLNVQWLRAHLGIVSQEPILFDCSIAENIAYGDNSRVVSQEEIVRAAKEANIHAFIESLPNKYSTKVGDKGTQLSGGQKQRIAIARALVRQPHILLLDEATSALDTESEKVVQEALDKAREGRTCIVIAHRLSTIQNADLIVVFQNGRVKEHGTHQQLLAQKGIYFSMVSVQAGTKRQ

CD8-positive T cell [20] = experiment: Activation of immune response in human CD8-positive T cell assessed as increase in IFN-gamma level at 4 uM by ELISA method; format: functional, cell-based
[21] = AUC (0 to t) in 12 hrs fasted Sprague-Dawley rat at 1 mg/kg, iv measured upto 720 mins by HPLC-MS/MS analysis; format: ADME, organism-based; details: in vivo
KB-C2 = experiment: Cytotoxicity against human KB-C2 cells assessed as survival rate at 2 uM measured after 72 hrs by MTT assay relative to control; format: functional; details: read-out: Survival
[22] = Toxicity in BALB/c nude mouse xenografted with […] CT26/TAXOL cells assessed as effect on spleen at 100 mg/kg/day, IG measured after 14 days by H and E staining based analysis; format: organism-based; details: in vivo, po, 336 h, time 14 day
CT26/TAXOL [23] = experiment: Antitumor T-cell immune response in […] cells xenografted in BALB/c nude mouse model assessed as reduction in tumor volume at 100 mg/kg/day, IG in presence of anti-PD-1/paclitaxel measured after 14 days; format: functional, organism-based; details: time 14.0 day
[24] = molecular target: T1, ATP-dependent translocase ABCB1; experiment: Activation of ABCB1 ATPase activity (unknown origin) infected in insect cells at 18.5 uM incubated for 20 mins in presence of Mg-ATP by spectrophotometric analysis; format: cell-based; details: insect cell
[25] = Toxicity in BALB/c nude mouse assessed as change in body weight at 100 mg/kg/day, IG measured after 21 days in presence of paclitaxel; format: organism-based; details: in vivo, po, 504 h, time 21 day
[26] = MRT (0 to infinity) in 12 hrs fasted Sprague-Dawley rat at 1 mg/kg, iv measured upto 720 mins by HPLC-MS/MS analysis; format: ADME, organism-based; details: in vivo
[27] = MRT (0 to infinity) in 12 hrs fasted Sprague-Dawley rat at 10 mg/kg, po measured upto 720 mins by HPLC-MS/MS analysis; format: ADME, organism-based; details: in vivo
SW-620 [28] = experiment: Cytotoxicity against human SW620 cells assessed as survival rate at 2 uM measured after 72 hrs by MTT assay relative to control; format: functional; details: read-out: Survival
[29] = Reversal of paclitaxel resistance in HEK293 cells transfected with pcDNA3.1 assessed as reversal fold by measuring ratio of paclitaxel IC50 to paclitaxel IC50 in presence of test compound at 2 uM incubated for 72 hrs by MTT assay; format: functional, Homo sapiens
SW620/AD300 [30] = experiment: Reversal of paclitaxel resistance in human SW620/AD300 cells assessed as reversal fold by measuring ratio of paclitaxel IC50 to paclitaxel IC50 in presence of test compound at 4 uM incubated for 72 hrs by MTT assay; format: functional
[31] = Oral bioavailability in 12 hrs fasted Sprague-Dawley rat at 10 mg/kg measured upto 720 mins by HPLC-MS/MS analysis; format: ADME, organism-based; details: in vivo
hERG (KCNH2) = hERG (KCNH2) (Homo sapiens, UniProt Q12809); experiment: Inhibition of human ERG expressed in CHO cells at 40 uM by QPatch assay relative to control; format: toxicity, cell-based; details: CHO cells expressing human ERG
Sequence of hERG (KCNH2) (Q12809 whole entry): as the sequence (Q12809 whole entry) above

O=c1c2c([nH]c3nc(SCc4nc5ccccc5s4)nn13)CCC2
Activity [1]: Non-toxic | Ratio IC50 [2]: 1.16 | viability at 4 µM (SW-620 [3]): 92.4% | Activity [4]: Non-toxic | Activity [5]: Non-toxic | Tmax [6]: 4.98 min | Activity [7]: Non-toxic | viability at 2 µM (SW620/AD300 [8]): 98.5% | Activity (CD8-positive T cell [9]): Active | Activity (CT26/TAXOL [10]): Active | Activity [11]: Non-toxic | viability at 5 µM (HEK293 [12]): 91.2% | IC50 [13]: > 50 µM | Activity (SW620/AD300 [14]): Active; Compound Showed Negligible Effect | Activity [15]: Non-toxic | viability at 5 µM (HEK293 [16]): 94.3% | Ratio IC50 (SW-620 [17]): 1.01 | viability at 4 µM (SW620/AD300 [18]): 95.6% | inhibition (INH) [19]: Dose-dependent-effect | Activity (CD8-positive T cell [20]): Active | AUC(0-t) at 12 h [21]: 880 ng·h/mL | viability at 2 µM (KB-C2): 96.2% | Activity [22]: Non-toxic | Activity (CT26/TAXOL [23]): Active | Activity [24]: Active | Activity [25]: Non-toxic | MRT inf [26]: 5.49 h | MRT inf [27]: 7.24 h | viability at 2 µM (SW-620 [28]): 95.9% | Ratio IC50 [29]: 10.9 | Ratio IC50 (SW620/AD300 [30]): 730.33 | bioavailability [31]: 63.9% | inhibition at 40 µM (hERG (KCNH2)): 32%
